Laboratory results published in patent US4447437A, “Pharmaceutical composition and method for treatment of peptic ulcer” (priority 1981, dated 1984).
Counter-ions that a name gives are not always drawn.

What was measured:
[1] = Solubility; type: physicochemical
[2] = Stability at room temperature; type: physicochemical; conditions: maleic acid salt
[3] = system: Shay ulcer of rats; assay: Effect on Shay ulcer of rats (pylorus ligation); type: in vivo, Wistar male rats; conditions: for Inhibition rate: ulcer-index 19 h after pylorus ligation
Experimental: Effect on Shay ulcer of rats
A group of 8 Wistar male rats weighing 130-180 g were used in a group. […] Nineteen hours after ligation, the severity of ulcerous lesions in the proventricular part of the stomach was observed and expressed in a numerical scale according to the method of Adami et al. (Arch. Int. Pharmacodyn. Ther., 143, 113 (1964)) as the ulcer-index. Inhibition of ulceration was calculated with ulcer-indexes of the treated group and those of a control group. The anti-ulcer effects of well-known therapeutic agents on the market, sulpiride and cetraxate, were examined for comparison.

[4] = system: histamine-induced ulcer in guinea-pigs; assay: Effect on histamine-induced ulcer in guinea-pigs; type: in vivo, male guinea-pigs; conditions: for Inhibition rate: 2 h
Experimental: Effect on histamine-induced ulcer in guinea-pigs
Groups of 10 male guinea-pigs weighing 280-300 g were used. […] Two hours later, the stomach was removed and the size of the ulcerous lesions were measured. Based on the size of the lesions, the inhibitory effect of the drug was estimated. The effects of sulpiride, cetraxate and aluminum sucrose sulphate were also determined for comparison.

[5] = system: acetic acid-induced ulcer in rats; assay: Effect on acetic acid-induced ulcer in rats; type: in vivo, male Wistar rats; conditions: for Inhibition rate: lesion size 12 days after acetic acid
Experimental: Effect on acetic acid-induced ulcer in rats
Groups of 14-16 male Wistar rats weighing 210-280 g were used. According to the method of Okabe et al. (Folia Pharmacologica Japonica, 74, 773 (1978)), 0.015 ml of 20% acetic acid solution was injected under the serous membrane at the border of the proventricular part and glandular part of the stomach. […] The stomach was removed 12 days after the injection of acetic acid and the size of the ulcerous lesions was measured. Based on the size of the lesions, the inhibitory effect of the drug was estimated. The effects of sulpiride were also determined for comparison.

[6] = in vivo; conditions: mouse, in vivo, po, LD50, ICR mice, mortality at 7 days, Litchfield-Wilcoxon method
Experimental: (§1) LD50 was calculated by the Litchfield-Wilcoxon method using mortality at 7 days after drug administration.

[7] = system: ICR mice; assay: in vivo; conditions: Table 4: ICR mice and Wistar rats, acute oral toxicity
Experimental: as §1

[8] = Acute oral toxicity in rats; conditions: rat, in vivo, Wistar rats, male, mortality at 7 days, Litchfield-Wilcoxon method
[9] = known compound; cited from earlier work
[10] = histamine-induced ulcer, 300 mg/kg, 5 mg/kg i.v. histamine

In the case of CN1CCC2=C(C1)c1ccccc1Cc1ccccc12 [Maleic acid salt of MO-8282], the “solubility (soluble in)” value ([1]; water or ethanol, maleic acid salt) is reported as “soluble in water or ethanol” and the stability [2] is reported as “stable at room temperature”.
With CN1CCC2=C(C1)c1ccccc1Cc1ccccc12 [MO-8282, 2-N-methyl-1,2,3,4-tetrahydro-9H-dibenzo[a,e]-pyridino[3,4-c]-cycloheptatriene] the “inhibitory action on Shay ulcer (in words)” value [3] was “significant inhibitory action on Shay ulcer in rats”, the Inhibition rate ([3]; Shay ulcer, 3 mg/kg s.c.) was 34.9% and the Inhibition rate ([3]; Shay ulcer, 10 mg/kg s.c.) was 44.2%. For the same compound, the “efficacy compared with reference drugs (in words)” value ([3]; Shay ulcer, versus sulpiride and cetraxate) was “superior to the two reference drugs, sulpiride and cetraxate”, the “inhibitory action on histamine-induced ulcers (in words)” value [4] was “significant inhibitory action on histamine-induced ulcers in guinea-pigs” and the Inhibition rate ([4]; histamine-induced ulcer, 3 mg/kg orally 10 min before 5 mg/kg i.v. histamine) was 54.7%. The Inhibition rate ([4]; histamine-induced ulcer, 10 mg/kg orally 10 min before 5 mg/kg i.v. histamine) was 98.6%, the “efficacy compared with reference drugs (in words)” value ([4]; histamine-induced ulcer, versus the reference drugs) was “superior to that of the reference drugs” and the “inhibitory action on acetic acid-induced ulcer (in words)” value [5] was “significant inhibitory action on acetic acid-induced ulcer in rats”. For the same compound, the Inhibition rate ([5]; acetic acid-induced ulcer, 3 mg/kg orally three times a day for 10 days) was 23.2%, the Inhibition rate ([5]; acetic acid-induced ulcer, 10 mg/kg orally three times a day for 10 days) was 51.2% and the “promotion of healing (in words)” value ([5]; acetic acid-induced ulcer, microscopic observation) was “promotion of healing by the compound was also evident under microscopic observation”. For the same compound, the “efficacy compared with reference drug (in words)” value ([5]; acetic acid-induced ulcer, versus sulpiride) was “superior to that of the reference drug with a lower dose”, the LD50 at 168 h ([6]; female) was 454 mg/kg and the LD50 at 168 h ([6]; male) was 423 mg/kg. For the same compound, the “toxic dose compared with therapeutic dose (in words)” value [7] was “considerably higher than its therapeutic dose”, the LD50 at 168 h [8] was 630 mg/kg and the “solubility (insoluble in)” value ([1]; ethanol, free base) was “insoluble in ethanol”. For the same compound, the “solubility (soluble in)” value ([1]; solvents in which soluble, free base) was “soluble in ether, ethyl acetate, n-hexane and chloroform” and the “anti-depressive activity (in words)” value [9] was “has anti-depressive activity”.
With NC[C@H]1CC[C@H](C(=O)Oc2ccc(CCC(=O)O)cc2)CC1 [Cetraxate, reference compound] the Inhibition rate ([3]; Shay ulcer, 300 mg/kg) was 44.2% and the Inhibition rate [4, 10] was -7.0%.
Compound CCN1CCCC1CNC(=O)c1cc(S(N)(=O)=O)ccc1OC (stereo not drawn) [Sulpiride, reference compound] has an Inhibition rate ([3]; Shay ulcer, 100 mg/kg) of 16.3%, an Inhibition rate [4, 10] of 5.6% and an Inhibition rate ([5]; acetic acid-induced ulcer, 100 mg/kg) of 43.9%.
